The term solubility denotes the concentration that dissolves in the medium under given conditions. A lower solubility goes with little dissolved substance. By Cmax is commonly meant the maximum level reached in the sampled fluid or tissue.

≈ marks a conversion by molar mass, not a printed value.

A short description of data set [1]: solubility in fasted state simulated intestinal fluid (FASSIF). Format: physicochemical. As to conditions: pH 6.1, fassif, pH of 6.1 at 4 hours.
A short description of data set [2]: rat pharmacokinetics study of Example 4 (oral suspensions). It counts as in vivo, Sprague Dawley rats. The conditions noted are these: Sprague Dawley, 200 mg/kg oral suspension in vehicle, plasma. Here is the method:
The following three homogenous suspensions of Compound 1 are provided:
Form 2 in vehicle (1% d-alpha-tocopheryl polyethylene glycol 1000 succinate (TPGS):1% HPMCAS in water), an amorphous solid dispersion of 25% w/w Form 2 and 75% w/w HPMCAS-M (Solid Dispersion A) in vehicle, and an amorphous solid dispersion of 25% w/w Form 2 and 75% w/w PVAP (Solid Dispersion B) in vehicle (200 mg/kg in 10 mL/kg).
Each suspension is prepared on the day of dosing, and the Sprague Dawley rats are dosed orally. Serial plasma samples are taken at different time points following dosing. […] PK parameters, including AUC0-72 hr and Cmax, are calculated using WinNonlin software.

The molecule `N#Cc1ccnc(N2C(=O)CC[C@H]2C(=O)N(c2cncc(F)c2)[C@H](C(=O)NC2CC(F)(F)C2)c2ccccc2Cl)c1` [Form 2, (S)—N—((S)-1-(2-chlorophenyl)-2-((3,3-difluorocyclobutyl)amino)-2-oxoethyl)-1-(4-cyanopyridin-2-yl)-N-(5-fluoropyridin-3-yl)-5-oxopyrrolidine-2-carboxamide] showed a solubility at 4 h in data set [1] of around 18 µg/mL (≈ 30.9 µM). Moreover, in data set [2], the Cmax worked out at 1600 ng/mL. For the same molecule, the AUC(0-t) in data set [2] (read-out: AUC0-72 hr) turned out to be 21700 ng·h/mL.

(Values after patent publication US10449184B2, “Pharmaceutical compositions of therapeutically active compounds” (Agios Pharmaceuticals, Inc., priority 2014, dated 2019).)
